Blank lines part the entries; values can stand above or below the compound they belong to. The source made the active and inactive calls. The calls are words filed in the database; no cut-off is given here.
Tests used:
[1] = target: T1, ATP-dependent translocase ABCB1 (Homo sapiens, UniProt P08183); assay: Inhibition of human ABCB1 expressed in mouse L5178Y cells using rhodamine 123 as substrate assessed as ratio of fluorescent intensity in ABCB1 expressing L5178Y cells to wild type L5178Y cells at 1 uM after 20 mins by flow cytometry; format: cell-based
T1 sequence (P08183 whole entry): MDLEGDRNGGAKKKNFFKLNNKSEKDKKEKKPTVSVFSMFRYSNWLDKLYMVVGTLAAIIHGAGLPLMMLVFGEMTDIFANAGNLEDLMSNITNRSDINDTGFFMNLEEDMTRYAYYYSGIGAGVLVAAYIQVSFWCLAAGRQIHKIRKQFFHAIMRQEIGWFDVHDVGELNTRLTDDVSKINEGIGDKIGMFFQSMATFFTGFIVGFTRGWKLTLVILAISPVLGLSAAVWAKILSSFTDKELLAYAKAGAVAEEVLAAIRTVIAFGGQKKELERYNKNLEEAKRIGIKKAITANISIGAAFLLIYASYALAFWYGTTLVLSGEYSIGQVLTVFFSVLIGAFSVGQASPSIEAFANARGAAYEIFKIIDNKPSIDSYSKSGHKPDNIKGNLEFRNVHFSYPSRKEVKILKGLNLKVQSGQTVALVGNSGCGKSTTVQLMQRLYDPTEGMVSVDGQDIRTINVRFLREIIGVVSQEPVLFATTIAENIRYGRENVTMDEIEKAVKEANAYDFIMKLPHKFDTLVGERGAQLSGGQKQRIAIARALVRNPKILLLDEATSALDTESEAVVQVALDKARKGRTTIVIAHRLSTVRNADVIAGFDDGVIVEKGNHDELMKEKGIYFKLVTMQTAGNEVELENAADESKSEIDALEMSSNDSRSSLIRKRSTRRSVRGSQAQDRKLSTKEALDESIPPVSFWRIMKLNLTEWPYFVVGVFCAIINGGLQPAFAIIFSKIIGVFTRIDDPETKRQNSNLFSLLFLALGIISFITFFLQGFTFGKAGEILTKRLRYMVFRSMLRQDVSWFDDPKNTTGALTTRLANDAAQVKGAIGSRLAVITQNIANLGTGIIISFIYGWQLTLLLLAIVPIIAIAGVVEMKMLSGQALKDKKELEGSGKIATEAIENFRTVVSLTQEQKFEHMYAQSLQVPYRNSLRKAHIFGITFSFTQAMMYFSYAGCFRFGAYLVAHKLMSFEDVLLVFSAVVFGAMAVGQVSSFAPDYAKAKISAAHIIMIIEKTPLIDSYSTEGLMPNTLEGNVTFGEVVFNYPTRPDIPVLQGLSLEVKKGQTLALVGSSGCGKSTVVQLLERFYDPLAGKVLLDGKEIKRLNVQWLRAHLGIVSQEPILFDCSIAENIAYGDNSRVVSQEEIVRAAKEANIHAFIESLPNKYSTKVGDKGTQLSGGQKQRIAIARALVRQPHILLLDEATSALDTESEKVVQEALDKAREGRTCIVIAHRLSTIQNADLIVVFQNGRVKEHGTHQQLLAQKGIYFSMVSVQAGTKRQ

[2] = target: T1, ATP-dependent translocase ABCB1; assay: Inhibition of human ABCB1 expressed in mouse L5178Y cells using rhodamine 123 as substrate assessed as ratio of fluorescent intensity in ABCB1 expressing L5178Y cells to wild type L5178Y cells at 10 uM after 20 mins by flow cytometry; format: cell-based
[3] = target: T1, ATP-dependent translocase ABCB1; assay: Ratio of verapamil to compound for inhibition of human ABCB1 expressed in mouse L5178Y cells using rhodamine 123 as substrate assessed as ratio of fluorescent intensity in ABCB1 expressing L5178Y cells to wild type L5178Y cells at 1 to 10 uM after 20 mins by flow cytometry; format: cell-based
[4] = tested on: L5178Y; assay: Cytotoxicity against wild type mouse L5178Y cells after 48 hrs by MTT assay; format: cell-based
[5] = tested on: L5178Y; assay: Cytotoxicity against wild type mouse L5178Y cells by MTT assay; format: cell-based
[6] = tested on: L5178Y; assay: Cytotoxicity against mouse L5178Y cells expressing human ABCB1 by MTT assay; format: ADME, cell-based
[7] = tested on: L5178Y; assay: Cytotoxicity against mouse L5178Y cells expressing human ABCB1 after 48 hrs by MTT assay; format: ADME, cell-based
[8] = tested on: EPG85-257P; assay: Induction of ABCB1 expression in human EPG85-257P cells at 10 uM after 72 hrs by Western blot analysis; format: functional, cell-based
[9] = species: Homo sapiens; assay: Induction of ABCB1 expression in human EPG85-257RDB cells at 10 uM after 72 hrs by Western blot analysis; format: functional, cell-based
[10] = tested on: EPG85-257P; assay: Induction of ABCB1 expression in human EPG85-257P cells at 10 uM after 72 hrs by Western blot analysis in presence of daunorubicin; format: functional, cell-based
[11] = species: Homo sapiens; assay: Induction of ABCB1 expression in human EPG85-257RDB cells at 10 uM after 72 hrs by Western blot analysis in presence of daunorubicin; format: functional, cell-based
[12] = tested on: A2780cisR; assay: Induction of ABCB1/2 expression in human A2780cisR cells at 10 uM after 72 hrs by Western blot analysis; format: functional, cell-based

- Ratio [1]: 3.42
- Ratio [2]: 12.77
- Ratio [3]: 2.5
Compound: CCOC(=O)C1=CN(Cc2ccccc2)c2ccccc2C1c1ccc(OC)c(OC)c1 (stereo not drawn)
- Activity [4]: Non-toxic
- IC50 [5]: > 160 µM
- IC50 [6]: > 160 µM
- Activity [7]: Non-toxic

- Ratio [1]: 2.41
- Ratio [2]: 15.84
Compound: CCOC(=O)C1=CN(Cc2ccc(OC)cc2)c2ccccc2C1c1ccc(OC)c(OC)c1 (stereo not drawn)

- Ratio [1]: 2.71
- Ratio [2]: 13.11
Compound: CCOC(=O)C1=CN(Cc2cccc(OC)c2)c2ccccc2C1c1cc(OC)cc(OC)c1 (stereo not drawn)

- Ratio [1]: 1.46
- Ratio [2]: 4.98
Compound: COc1ccc(CCN(C)CCCC(C#N)(c2ccc(OC)c(OC)c2)C(C)C)cc1OC (stereo not drawn) [VERAPAMIL]

- Ratio [1]: 2.98
- Ratio [2]: 15.86
Compound: CCOC(=O)C1=CN(Cc2cccc(OC)c2)c2ccccc2C1c1ccc(OC)c(OC)c1 (stereo not drawn)
- Activity [4]: Non-toxic
- IC50 [5]: > 160 µM
- IC50 [6]: > 160 µM
- Activity [7]: Non-toxic
- Activity [8]: inactive
- Activity [9]: inactive
- Activity [10]: inactive
- Activity [11]: inactive
- Activity [12]: inactive

- Ratio [1]: 2.03
- Ratio [2]: 10.34
Compound: CCOC(=O)C1=CN(Cc2ccc(OC)cc2)c2ccccc2C1c1cccc(OC)c1 (stereo not drawn)

- Ratio [1]: 3.63
- Ratio [2]: 13.36
Compound: CCOC(=O)C1=CN(Cc2ccc(OC)cc2)c2ccccc2C1c1cc(OC)cc(OC)c1 (stereo not drawn)

The next lines start with the compound.

Compound: CCOC(=O)C1=CN(Cc2ccc(OC)cc2)c2ccccc2C1c1ccc(OC)cc1 (stereo not drawn)
- Ratio [1]: 2.55
- Ratio [2]: 13.66

Compound: CCOC(=O)C1=CN(Cc2cccc(OC)c2)c2ccccc2C1c1cccc(OC)c1 (stereo not drawn)
- Ratio [1]: 2.26
- Ratio [2]: 9.68

Compound: CCOC(=O)C1=CN(Cc2ccccc2)c2ccccc2C1c1ccccc1 (stereo not drawn)
- Ratio [1]: 1.48
- Ratio [2]: 4.72

Compound: CCOC(=O)C1=CN(Cc2ccccc2)c2ccccc2C1c1cc(OC)cc(OC)c1 (stereo not drawn)
- Ratio [1]: 2.96
- Ratio [2]: 10.5

Compound: CCOC(=O)C1=CN(Cc2cccc(OC)c2)c2ccccc2C1c1ccc(OC)cc1 (stereo not drawn)
- Ratio [1]: 2.23
- Ratio [2]: 9.95

From ChEMBL document CHEMBL3593204, “Discovery of substituted 1,4-dihydroquinolines as novel class of ABCB1 modulators” (Bioorg Med Chem, 2015)
